In data set [1] the test system is SK-OV-3 human ovary adenocarcinoma cells. As to the kind of experiment: SK-OV-3 ovary tumour xenograft in CD-1 nude mice, combination with taxol or cisplatin (1.8). The class given is in vivo, human cells in mice. The following applies: SEQ ID NO:1 10 mg/kg i.v. every other day 17 times. On the procedure: After 52 days the mice were sacrificed and the tumours weighed. […] Mitoxantrone was administered intravenously once at the beginning of the treatments at a dose of 2 mg/kg (FIG. 4A) or once a week for four weeks at a reduced dose of 0.8 mg/kg (FIG. 4B). All treatments were stopped at day 50 (FIG. 4A) or 48 (FIG. 4B), respectively. […] Mitoxantrone was administered intravenously once at the beginning of the treatments at a dose of 2 mg/kg (FIG. 5A) or once a week for four weeks at a reduced dose of 0.8 mg/kg (FIG. 5B). All treatments were stopped at day 42 (FIG. 5A) or 38 (FIG. 5B), respectively. […] A2058 is a metastatic melanoma cell line. […] All treatments were stopped at day 24. […] Taxol was administered intravenously once a week at a dose of 10 mg/kg for three (FIG. 7A) or four weeks (FIG. 7C). Doxorubicin was administered intravenously once a week at a dose of 5 mg/kg for first three weeks (FIG. 7A) or for two weeks (FIG. 7C). All treatments were stopped at day 33 (FIG. 7A) or at day 26 (FIG. 7C), respectively. […] In FIG. 7C, antitumour activities were estimated by the inhibition of tumour volume, which was measured with calipers. Each point represents mean tumour volume calculated from 10 animals per experimental group. […] Taxol was administered intravenously once a week for first three weeks and intraperitoneally once a week for next two weeks at a dose of 10 mg/kg. Cisplatin was administered intravenously once a week for first three weeks and intraperitoneally once a week for next two weeks at a dose of 4 mg/kg. All treatments were stopped at day 40. Antitumour activities were estimated by the inhibition of tumour volume, which was measured with caliper. Each point represents mean tumour volume calculated from 9 animals per experimental group.
A general note: A xenograft is tissue or cells of one species grown in another, often human tumour cells in immunodeficient mice.

A short description of data set [2]: Pharmacokinetics in the monkey, 21 day continuous intravenous infusion. The class given is in vivo. Here is the method: The toxicokinetics and tissue distribution of SEQ ID NO:1 (and related oligonucleotide metabolites obtained from exonuclease-mediated chain shortening) were determined in rats and monkeys. In addition to investigating the pharmacokinetics and tissue distribution of SEQ ID NO:1, the purpose of the studies was to correlate adverse effects in the animal studies to the concentrations of SEQ ID NO:1 (and metabolites) in tissue and blood. A capillary electrophoresis (CE) method was used to measure the concentrations of SEQ ID NO:1 (and metabolites) in plasma and tissues.
SEQ ID NO:1 was administered to monkeys by continuous intravenous infusion for 21 days followed by a 21-day recovery period. Twenty-eight monkeys were administered one of the following dose levels; vehicle control, 2, 10, or 50 mg/kg/day (24.6, 123, and 615 mg/m^2/day). Toxicokinetic samples were collected prior to the initiation of infusion, approximately 8, 24, 48, and 96 hours following the start of infusion, and on Day 20 prior to the change in dose-syringes.

Where [3] appears, read: 10 mg/kg/day continuous i.v. infusion 21 days.
The mark [4] stands for this setting: 50 mg/kg/day continuous i.v. infusion 21 days.

For the substance “5′-GGCTAAATCGCTCCACCAAG-3′ (all phosphorothioate, sugars by position and methylation of C not given here) [SEQ ID NO: 1, fully phosphorothioated antisense oligonucleotide that hybridizes to the coding region of R2 mRNA]”, in data set [1] (SK-OV-3 (ovary), CD-1, Taxol 10 mg/kg weekly, Cisplatin 4 mg/kg weekly), the “tumour volume data as percentage of saline control” value is 42%. The “Antitumour effect (tumour volume, FIG. 8)” value in data set [1] (SK-OV-3, CD-1 nude mice, taxol 10 mg/kg, cisplatin 4 mg/kg weekly) is recorded as “significant delay of tumour growth compared to saline control”. Also, the Plasma concentrations entry in data set [2] (2 mg/kg dose group) is reported as “could not be detected”. Besides, the “median Tmax” value in data set [2] (10 mg/kg dose group) amounted to 20 days. Besides, in data set [2] (setting [3]), the Cl was 3.47 ± 0.867 mL/min/kg, the Cmax was found to be 2.94 µg/mL, the Css came out at 2.10 ± 0.48 µg/mL and the “Tmax (mean)” value was 13.5 days. The “median Tmax” value in data set [2] (50 mg/kg dose group) amounted to 1 days. Further, in data set [2] (setting [4]), the Cl turned out to be 2.17 ± 0.267 mL/min/kg, the Cmax came to 20.3 µg/mL, the Css is 16.2 ± 2.2 µg/mL and the “Tmax (mean)” value turned out to be 7.12 days. The “Time to steady state plasma concentration” value in data set [2] (continuous i.v. infusion) is given as “steady state by eight hours after dosing”.
